In patent US8940863B2, “Selective anticancer chimeric peptides which bind neuropilin receptor” (Stella Pharma Corporation, priority 2008, dated 2015):
Like-named read-outs stand apart in the source and are kept apart here. Non-standard residues stand in square brackets, D forms with d. Residues, ends and D or L forms follow the SMILES beside them. No end group written: not given here.

What was measured:
[1] = system: U251; conditions: 72 h
[2] = system: A172; experiment: Cell viability assay (WST-8); type: cell-based; conditions: 72 h
[3] = system: KCCT873; experiment: Cell viability assay (WST-8); type: cell-based; conditions: 72 h
[4] = system: MDA-MB-231
[5] = system: BxPC-3
[6] = system: HEK293T; type: cell-based
[7] = system: WI-38; conditions: 72 h
[8] = system: PE cell (pancreatic epidermal); experiment: Cell viability assay (WST-8); type: cell-based
Excerpt: (§1) Correlation between IC50 values was observed.

[9] = system: HC cell (hepatocyte cell); experiment: Cell viability assay (WST-8); type: cell-based, human; conditions: Human normal hepatocyte cell; 48 hours (Table 8); read-out: IC50
Excerpt: as §1

[10] = system: CFPAC-1
[11] = system: MRC-5; experiment: Cell viability assay (WST-8)
[12] = system: SU.86.86; conditions: for IC50: 48 h
[13] = system: SU8686; experiment: Annexin V flow cytometry; type: cell-based, human; conditions: 10 μM, three hours at 37° C.
Procedure: SU8686 cells were incubated with Sema3A (363-377)-kLytic peptide (10 μM) for three hours at 37° C., and were analyzed for Annexin V labeling by dual-color flow cytometry.

[14] = system: Panc-1
[15] = system: T47D; experiment: Cell viability assay (WST-8); type: cell-based, human
Excerpt: as §1

[16] = system: BT-20
[17] = system: HuCCT-1; conditions: 48 h
[18] = system: SK-BR-3
[19] = system: H322; conditions: H322; 72 hours
[20] = biological target: recombinant human EGF receptor (rhEGFR) (Homo sapiens, UniProt P00533); experiment: BIACORE binding to EGFR protein
Procedure: Surface plasmon resonance (SPR) experiments were performed with a BIACORE biosensor system 3000 (BIACORE Inc., Uppsala, Sweden). About 5000 RU of streptavidin (Sigma) was immobilized on the surface of CM5 sensor chips via N-hydroxysuccinimide and N-ethyl-N′-(dimethylaminopropyl) carbodiimide activation chemistry, and then 2000-3000 RU of peptide conjugated with biotin were injected over the streptavidin-immobilized sensor chip. As a control of nonspecific binding, the unreacted carboxymethyl groups of a sensor chip without immobilized streptavidin were blocked with ethanolamine. As an analyte, cell surface proteins which were prepared using the Mem-PER eukaryotic membrane protein extraction reagent kit (Pierce) were injected over the flow-cell in the flow rate of […]. at 25° C. […] All protein concentrations used in these experiments were determined by the Bradford method (Bradford M M. A rapid and sensitive method for the quantitation of microgram quantities of protein utilizing the principle of protein-dye binding. Anal Biochem 1976; 72:248-54). […]
Among the aforementioned mutated peptides, first, paying attention to the second H which has charge, K- and R-mutants were chemically synthesized. As described in Example 1, using BIACORE, binding affinity with recombinant human EGFR was evaluated by comparison with that of wild-type EGFR-binding peptide. […]

In the case of `CC[C@H](C)[C@H](NC(=O)[C@H](CC(C)C)NC(=O)[C@H](CCC(N)=O)NC(=O)[C@@H](N)CCCCN)C(=O)N[C@@H](CCCNC(=N)N)C(=O)N[C@@H](Cc1ccccc1)C(=O)N[C@@H](CC(C)C)C(=O)N[C@@H](CCCCN)C(=O)N[C@@H](CCCNC(=N)N)C(=O)N[C@@H](CC(C)C)C(=O)N[C@@H](CC(=O)O)C(=O)N[C@@H](CCCNC(=N)N)C(=O)N[C@@H](CC(N)=O)C(=O)NCC(=O)NCC(=O)NCC(=O)N[C@@H](CCCCN)C(=O)N[C@@H](CC(C)C)C(=O)N[C@H](CC(C)C)C(=O)N[C@@H](CC(C)C)C(=O)N[C@@H](CCCCN)C(=O)N[C@H](CC(C)C)C(=O)N[C@@H](CC(C)C)C(=O)N[C@H](CCCCN)C(=O)N[C@H](CCCCN)C(=O)N[C@@H](CC(C)C)C(=O)N[C@@H](CC(C)C)C(=O)N[C@@H](CCCCN)C(=O)N[C@H](CC(C)C)C(=O)N[C@@H](CC(C)C)C(=O)N[C@@H](CCCCN)C(=O)N[C@@H](CCCCN)C(=O)N[C@@H](CCCCN)C(=O)O` [IL4-lytic (L, D)] (H-KQLIRFLKRLDRNGGGKL[dL]LK[dL]L[dK][dK]LLK[dL]LKKK-OH; N-terminus and C-terminus assumed), the IC50 [1] is reported as 6.6 ± 0.4 µM, the IC50 [2] is reported as 6.8 ± 0.4 µM and the IC50 [3] is reported as 5.9 ± 0.6 µM. For the same compound, the IC50 ([4]; 72 h) was 5.7 ± 0.4 µM, the IC50 ([5]; 72 h) was 6.8 ± 0.3 µM and the IC50 ([6]; 72 h) was 14.2 ± 1.3 µM. The IC50 [7] was 16.1 ± 0.5 µM and the IC50 ([8]; PE normal cells, 72 hours, Mean ± SD (Table 4), read-out: IC50) was greater than 20 µM.

In the case of `CC(C)C[C@H](NC(=O)[C@H](CC(C)C)NC(=O)[C@@H](CCCCN)NC(=O)[C@@H](CCCCN)NC(=O)[C@H](CC(C)C)NC(=O)[C@@H](CC(C)C)NC(=O)[C@H](CCCCN)NC(=O)[C@H](CC(C)C)NC(=O)[C@@H](CC(C)C)NC(=O)[C@H](CC(C)C)NC(=O)[C@H](CCCCN)NC(=O)CNC(=O)CNC(=O)CNC(=O)[C@H](CCCNC(=N)N)NC(=O)[C@@H]1CCCN1C(=O)[C@H](Cc1ccc(O)cc1)NC(=O)[C@@H]1CCCN1C(=O)[C@@H](NC(=O)[C@H](CCCNC(=N)N)NC(=O)CNC(=O)[C@H](CCC(N)=O)NC(=O)[C@H](Cc1ccc(O)cc1)NC(=O)[C@@H]1CCCN1C(=O)[C@@H](NC(=O)[C@H](Cc1c[nH]c2ccccc12)NC(=O)[C@H](CCC(N)=O)NC(=O)[C@H](Cc1ccc(O)cc1)NC(=O)[C@@H](N)CC(N)=O)C(C)C)C(C)C)C(=O)N[C@@H](CCCCN)C(=O)N[C@H](CC(C)C)C(=O)N[C@@H](CC(C)C)C(=O)N[C@@H](CCCCN)C(=O)N[C@@H](CCCCN)C(=O)N[C@@H](CCCCN)C(=O)O` [Sema3A(aa363-377)-kLytic] (H-NYQWVPYQGRVPYPRGGGKL[dL]LK[dL]L[dK][dK]LLK[dL]LKKK-OH; N-terminus and C-terminus assumed), the IC50 [9] is reported as 37.5 µM, the IC50 ([5]; 48 h) is reported as 5.7 ± 2.3 µM and the IC50 ([10]; 48 h) is reported as 6.7 ± 0.1 µM. For the same compound, the IC50 ([11]; MRC-5 normal cells, 48 hours (Table 8)) was greater than 50 µM, the IC50 [12] was 5.2 ± 0.4 µM and the “Annexin V-positive dead cells” value ([13]; listed as Sema3A (363-377)-kLytic) was “increased”. For the same compound, the “Annexin V-positive dead cells” value ([13]; listed as Sema3A(363-377)-kLytic) was “induces Annexin V-positive expression”, the IC50 ([8]; Pancreatic epidermal cell, normal cells, 48 hours (Table 8), read-out: IC50) was greater than 20 µM and the IC50 ([14]; 48 h) was 13 ± 2.7 µM.

For `CC(C)C[C@H](NC(=O)[C@H](CCCCN)NC(=O)[C@@H](CC(C)C)NC(=O)[C@H](CC(C)C)NC(=O)[C@H](CCCCN)NC(=O)[C@H](CCCCN)NC(=O)[C@H](CC(C)C)NC(=O)[C@@H](CC(C)C)NC(=O)[C@@H](CCCCN)NC(=O)[C@H](CCCCN)NC(=O)[C@H](CC(C)C)NC(=O)[C@H](CC(C)C)NC(=O)[C@@H](CCCCN)NC(=O)[C@H](CC(C)C)NC(=O)[C@H](CC(C)C)NC(=O)CNC(=O)CNC(=O)[C@H](CCCNC(=N)N)NC(=O)[C@@H]1CCCN1C(=O)[C@H](Cc1ccc(O)cc1)NC(=O)[C@@H]1CCCN1C(=O)[C@@H](NC(=O)[C@H](CCCNC(=N)N)NC(=O)CNC(=O)[C@H](CCC(N)=O)NC(=O)[C@H](Cc1ccc(O)cc1)NC(=O)[C@@H]1CCCN1C(=O)[C@@H](NC(=O)[C@H](Cc1c[nH]c2ccccc12)NC(=O)[C@H](CCC(N)=O)NC(=O)[C@H](Cc1ccc(O)cc1)NC(=O)[C@@H](N)CC(N)=O)C(C)C)C(C)C)C(=O)O` [Sema3A(aa363-377)-nLytic] (H-NYQWVPYQGRVPYPRGGLL[dK]LLK[dK][dL]LKKL[dL]KL-OH; N-terminus and C-terminus assumed), the IC50 ([15]; 48 h) was 4.1 µM, the IC50 ([16]; 48 h) was 10.9 µM and the IC50 ([4]; 48 h) was 11.5 µM. For the same compound, the IC50 ([5]; 48 h) was 12.5 µM, the IC50 ([10]; 48 h) was 10.6 µM and the IC50 ([6]; 48 h) was greater than 20 µM. For the same compound, the IC50 [17] was 13.6 µM, the IC50 [12] was 7.9 µM and the IC50 ([18]; 48 h) was 8 µM. For the same compound, the IC50 ([8]; 48 h) was greater than 50 µM and the IC50 ([14]; 48 h) was 13.1 µM.

In the case of `CC(C)C[C@H](NC(=O)[C@H](CCCCN)NC(=O)[C@@H](CC(C)C)NC(=O)[C@H](CC(C)C)NC(=O)[C@H](CCCCN)NC(=O)[C@H](CCCCN)NC(=O)[C@H](CC(C)C)NC(=O)[C@@H](CC(C)C)NC(=O)[C@@H](CCCCN)NC(=O)[C@H](CCCCN)NC(=O)[C@H](CC(C)C)NC(=O)[C@H](CC(C)C)NC(=O)[C@@H](CCCCN)NC(=O)[C@H](CC(C)C)NC(=O)[C@@H](N)CC(C)C)C(=O)O` [nLytic, LLKLLKKLLKKLLKL] (H-LL[dK]LLK[dK][dL]LKKL[dL]KL-OH; N-terminus and C-terminus assumed), the IC50 ([15]; T47D breast cancer cells, 48 hours (Table 6), read-out: IC50) is reported as 12.5 µM, the IC50 ([16]; BT20 breast cancer cells, 48 hours (Table 6)) is reported as 38 µM and the IC50 ([4]; 48 h) is reported as 29.6 µM. For the same compound, the IC50 ([5]; 48 h) was 38.5 µM, the IC50 ([10]; CFPAC-1 cancer cells, 48 hours (Table 5)) was 22.6 µM and the IC50 [12] was 19.5 µM. It also gave an IC50 ([8]; Pancreatic epithelium normal cells, 48 hours (Table 5), read-out: IC50) greater than 50 µM and an IC50 ([14]; Panc-1 cancer cells, 48 hours (Table 5)) of 28.2 µM.

With “NYQWVPYQGRVPYPRGGGKLLLKLLKKLLKLLKKK (Sema3A-lyticL chimeric peptide)” the “cell-killing effect compared with LyticL alone” value ([12]; SU86.86, 72 hours) was “cell-killing effect was enhanced” and the “cell-killing effect compared with LyticL alone” value ([18]; SKBR3, 72 hours) was “cell-killing effect was enhanced”.

With “YHWYGYTPQNVIGGGLKLLKKLLKKLLKLL-NH2 (C-terminal amide; EB-original Lytic peptide; position 18, 21, 23, 24 and 28 are D-amino acids, and -CONH2 is existing at C-terminal.)” the “cytotoxicity to normal cell line MRC-5” value ([11]; MRC-5, 72 hours) was “killed even normal cell line (MRC-5) at lower concentration”.

“YHWYGYTPQNVIGGGLKLLKKLLKKLLKLL-NH2 (YHWYGYTPQNVIGGGLK[dL]LK[dK]L[dL][dK]KLL[dK]LL-NH2; N-terminus assumed; SMILES CC[C@H](C)[C@H](NC(=O)[C@@H](NC(=O)[C@H](CC(N)=O)NC(=O)[C@H](CCC(N)=O)NC(=O)[C@@H]1CCCN1C(=O)[C@@H](NC(=O)[C@H](Cc1ccc(O)cc1)NC(=O)CNC(=O)[C@H](Cc1ccc(O)cc1)NC(=O)[C@H](Cc1c[nH]c2ccccc12)NC(=O)[C@H](Cc1c[nH]cn1)NC(=O)[C@@H](N)Cc1ccc(O)cc1)[C@@H](C)O)C(C)C)C(=O)NCC(=O)NCC(=O)NCC(=O)N[C@@H](CC(C)C)C(=O)N[C@@H](CCCCN)C(=O)N[C@H](CC(C)C)C(=O)N[C@@H](CC(C)C)C(=O)N[C@@H](CCCCN)C(=O)N[C@H](CCCCN)C(=O)N[C@@H](CC(C)C)C(=O)N[C@H](CC(C)C)C(=O)N[C@H](CCCCN)C(=O)N[C@@H](CCCCN)C(=O)N[C@@H](CC(C)C)C(=O)N[C@@H](CC(C)C)C(=O)N[C@H](CCCCN)C(=O)N[C@@H](CC(C)C)C(=O)N[C@@H](CC(C)C)C(N)=O) [EB-original lytic peptide]” was tested, and the “cell-killing effect of chimeric peptide compared with lytic moiety alone” value [19] was “did not show enhancement of cytotoxic activity”.

In the case of “YKWYGYTPQNVI (EGFR binding peptide) [K-substituted peptide]”, the “biosensor response compared with wild-type EGFR-binding peptide” value [20] is reported as “some enhancement of biosensor response”.

With “YRWYGYTPQNVI (EGFR binding peptide) [R-substituted peptide]” the “biosensor response compared with wild-type EGFR-binding peptide” value [20] was “response of two fold of wild-type”.
